Results published in US20240109893A1, “PREPARATION AND APPLICATION METHOD OF HETEROCYCLIC COMPOUNDS AS KRAS INHIBITOR” (SHANGHAI KECHOW PHARMA, INC., priority 2020, published 2024).

Tested on: H358 cells
Experiment: Cell activity experiment: activity test of H358 cells (MTT, 5 days)
Format: cell-based
Details: 5 days incubation, absorbance 492 nm
Summary of the method: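 H358 cells seeded 90 μL at 55555 cells/mL, grown 24 h, then exposed to 3-fold serial compound dilutions (final top 10000 nM, 0.5% DMSO) in triplicate for 5 days at 37° C., 5% CO2. Viability by MTT (4 h), formazan dissolved in DMSO, absorbance at 492 nm.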

Row | SMILES | IC50
1 | C=CC(=O)N1CCN(c2c(C#N)c(OC[C@@H]3CCCN3C)nc3cc(-c4cccc5c4CCCC5)c(Cl)cc23)C[C@@H]1CC#N [Example 622] | 231 nM
2 | C=C(F)C(=O)N1CCN(c2nc(OC[C@@H]3CCCN3C)nc3c(F)c(-c4cccc5c4CC4CC54)ccc23)C[C@@H]1CC#N (stereo partly drawn) [Example 872] | 8.4 nM

Now from value to compound:

Row | IC50 | SMILES
3 | 35 nM | C=CC(=O)N1CC[C@H]2[C@H]1CN2c1c(Cl)c(-c2cccc3c2CCCC3)cc2nc(OC[C@@]34CCCN3C[C@H](F)C4)ncc12 [Example 473]
4 | 30 nM | C=CC(=O)N1CC[C@H]2[C@H]1CN2c1nc(OC[C@@]23CCCN2C[C@H](F)C3)nc2cc(-c3cccc4cccc(Cl)c34)c(Cl)cc12 [Example 474]
5 | 25 nM | C=CC(=O)N1CC[C@H]2[C@H]1CN2c1nc(OC[C@@]23CCCN2C[C@H](F)C3)nc2cc(-c3cccc4ccc(F)c(Cl)c34)c(Cl)cc12 [Example 475]

Same assay, conditions: Homo sapiens, NCI-H358, 120 h, 5 days incubation, absorbance 492 nm

Row | SMILES | IC50
6 | C=CC(=O)N1CCN(c2nc(OCC34CCCN3CCC4)nc3c(F)c(-c4cccc5ccc(F)c(Cl)c45)ccc23)C[C@@H]1CC#N [Example 365, (S)-2-(1-acryloyl-4-(7-(8-chloro-7-fluoronaphthalen-1-yl)-8-fluoro-2-((tetrahydro-1H-pyrrolizin-7a(5H)-yl)methoxy)quinazolin-4-yl)piperazin-2-yl)acetonitrile] | 2 nM
7 | C=CC(=O)N1CCN(c2nc(OC[C@@]34CCCN3C[C@H](F)C4)nc3c(F)c(-c4cccc5c4CCCC5)ccc23)C[C@@H]1CC#N [Example 366] | 3 nM
8 | C=CC(=O)N1CC[C@H]2[C@H]1CN2c1nc(OC[C@@H]2CCCN2C)nc2c(F)c(-c3cccc4cccc(Cl)c34)ccc12 [Example 370, 1-((1R,5S)-6-(7-(8-chloronaphthalen-1-yl)-8-fluoro-2-(((S)-1-methylpyrrolidin-2-yl)methoxy)quinazolin-4-yl)-2,6-diazabicyclo[3.2.0]hept-2-yl)prop-2-en-1-one] | 10 nM
9 | C=CC(=O)N1CCN(c2nc(OC[C@@H]3CCCN3C)nc3c(F)c(-c4cccc5c4CCCC5)c(F)cc23)C[C@@H]1CC#N [Example 429] | 15 nM
10 | C=CC(=O)N1CCN(c2nc(OC[C@@H]3CCCN3C)nc3c(F)c(-c4cccc5ccc(F)c(Cl)c45)c(F)cc23)C[C@@H]1CC#N [Example 431] | 148 nM
11 | C=CC(=O)N1CCN(c2nc(OC[C@@H]3CCCN3C)nc3cc(-c4cccc5ccc(F)c(Cl)c45)c(Cl)cc23)C[C@@H]1CC#N [Example 466] | 65 nM
12 | C=CC(=O)N1CCN(c2nc(OC[C@@H]3C[C@@H](F)CN3C)nc3cc(-c4cccc5c4CCCC5)c(Cl)cc23)C[C@@H]1CC#N [Example 467] | 80 nM
13 | C=CC(=O)N1CCN(c2nc(OC[C@@]34CCCN3C[C@H](F)C4)nc3c(F)c(-c4cccc5cccc(Cl)c45)c(Cl)cc23)C[C@@H]1CC#N [Example 510] | 130 nM
14 | C=CC(=O)N1CCN(c2nc(OC[C@@H]3CCCN3C)nc3cc(-c4cccc5c4C4CC4C5)ccc23)C[C@@H]1CC#N (stereo partly drawn) [Example 536] | 30 nM
15 | C=C(F)C(=O)N1CCN(c2nc(OC[C@@H]3CCCN3C)nc3cc(N4CCCc5cccc(Cl)c54)ccc23)C[C@@H]1CC#N [Example 619, 2-((S)-4-(7-(8-chloro-3,4-dihydroquinoline-1(2H)-yl)-2-(((S)-1-methylpyrrolidin-2-yl)methoxy)quinazolin-4-yl)-1-(2-fluoroacryloyl)piperazin-2-yl)acetonitrile] | 496 nM
16 | C=CC(=O)N1CCN(c2c(CC#N)c(OCC34CCCN3CCC4)nc3cc(-c4cccc5ccc(F)c(Cl)c45)c(F)cc23)C[C@@H]1CC#N [Example 621, (S)-4-(4-acryloyl-3-(cyanomethyl)piperazin-1-yl)-7-(8-chloro-7-fluoronaphthalen-1-yl)-6-fluoro-2-((tetrahydro-1H-pyrrolizin-7a(5H)-yl)methoxy)quinoline-3-acetonitrile] | 330 nM
17 | C=C(F)C(=O)N1CCN(C2=C(C#N)C(OC[C@@H]3CCCN3C)=NC3C=C(c4cccc5ccc(F)c(Cl)c45)C=CC23)C[C@@H]1CC#N (stereo partly drawn) [Example 624] | 800 nM
18 | C=C(F)C(=O)N1CCN(C2=C(C#N)C(OC[C@@H]3C[C@@H](F)CN3C)=NC3C=C(c4cccc5ccc(F)c(Cl)c45)C=CC23)C[C@@H]1CC#N (stereo partly drawn) [Example 626] | 1500 nM
19 | C=C(F)C(=O)N1CCN(C2=C(C#N)C(OC[C@@]34CCCN3C[C@H](F)C4)=NC3C=C(c4cccc5ccc(F)c(Cl)c45)C=CC23)C[C@@H]1CC#N (stereo partly drawn) [Example 629] | 120 nM
20 | C=CC(=O)N1CCN(c2nc(OCC3(CN4CCCC4)CC3)nc3c(F)c(-c4cccc5cccc(Cl)c45)ccc23)C[C@@H]1CC#N [Example 855, (S)-2-(1-acryloyl-4-(7-(8-chloronaphthalen-1-yl)-8-fluoro-2-((1-(pyrrolidin-1-ylmethyl)cyclopropyl)methoxy)quinazolin-4-yl)piperazin-2-yl)acetonitrile] | 5.1 nM

Next, values leading:

Row | IC50 | SMILES
21 | 0.11 nM | C=CC(=O)N1CCN(c2nc(OC[C@@]34CCCN3C[C@H](F)C4)nc3c(F)c(-c4cccc5ccc(F)c(Cl)c45)ccc23)C[C@@H]1CC#N [Example 368]
22 | 20 nM | C=CC(=O)N1CCC2[C@H]1CN2c1nc(OC[C@@H]2CCCN2C)nc2c(F)c(-c3cccc4c3CCCC4)ccc12 (stereo partly drawn) [Example 369]
23 | 6 nM | C=CC(=O)N1CCC2[C@H]1CN2c1nc(OC[C@@H]2CCCN2C)nc2c(F)c(-c3cccc4ccc(F)c(Cl)c34)ccc12 (stereo partly drawn) [Example 371]
24 | 5 nM | C=CC(=O)N1CCC2[C@H]1CN2c1nc(OCC23CCCN2CCC3)nc2c(F)c(-c3cccc4c3CCCC4)ccc12 (stereo partly drawn) [Example 372]
25 | 158 nM | C=CC(=O)N1CCN(c2nc(OC[C@@H]3CCCN3C)nc3cc(-c4cccc5cccc(Cl)c45)c(F)cc23)C[C@@H]1CC#N [Example 394, 2-((S)-1-acryloyl-4-(6-fluoro-7-(8-chloronaphthalen-1-yl)-2-(((S)-1-methylpyrrolidin-2-yl)methoxy)quinazolin-4-yl)piperazin-2-yl)acetonitrile]
26 | 140 nM | C=CC(=O)N1CCN(c2nc(OC[C@@H]3CCCN3C)nc3c(F)c(-c4cccc5cccc(Cl)c45)c(F)cc23)C[C@@H]1CC#N [Example 430, 2-((S)-1-acryloyl-4-(6,8-difluoro-7-(8-chloronaphthalen-1-yl)-2-(((S)-1-methylpyrrolidin-2-yl)methoxy)quinazolin-4-yl)piperazin-2-yl)acetonitrile]
27 | 2.4 nM | C=CC(=O)N1CCN(c2nc(OC[C@@H]3C[C@@H](F)CN3C)nc3c(F)c(-c4cccc5c4CCCC5)c(F)cc23)C[C@@H]1CC#N [Example 432]
28 | 75 nM | C=CC(=O)N1CCN(c2nc(OC[C@@H]3C[C@@H](F)CN3C)nc3cc(-c4cccc5cccc(Cl)c45)c(Cl)cc23)C[C@@H]1CC#N [Example 468]
29 | 70 nM | C=CC(=O)N1CCN(c2nc(OC[C@@H]3C[C@@H](F)CN3C)nc3cc(-c4cccc5ccc(F)c(Cl)c45)c(Cl)cc23)C[C@@H]1CC#N [Example 469]
30 | 50 nM | C=CC(=O)N1CCN(c2nc(OCC34CCCN3CCC4)nc3cc(-c4cccc5c4CCCC5)c(Cl)cc23)C[C@@H]1CC#N [Example 470]
31 | 45 nM | C=CC(=O)N1CC[C@H]2[C@H]1CN2c1nc(OCC23CCCN2CCC3)nc2cc(-c3cccc4cccc(Cl)c34)c(Cl)cc12 [Example 471, 1-((1R,5S)-6-(6-chloro-7-(8-chloronaphthalen-1-yl)-2-((tetrahydro-1H-pyrrolizin-7a(5H)-yl)methoxy)quinazolin-4-yl)-2,6-diazabicyclo[3.2.0]hept-2-yl)prop-2-en-1-one]
32 | 40 nM | C=CC(=O)N1CC[C@H]2[C@H]1CN2c1nc(OCC23CCCN2CCC3)nc2cc(-c3cccc4ccc(F)c(Cl)c34)c(Cl)cc12 [Example 472, 1-((1R,5S)-6-(6-chloro-7-(8-chloro-7-fluoronaphthalen-1-yl)-2-((tetrahydro-1H-pyrrolizin-7a(5H)-yl)methoxy)quinazolin-4-yl)-2,6-diazabicyclo[3.2.0]hept-2-yl)prop-2-en-1-one]
33 | 150 nM | C=C(F)C(=O)N1CCN(c2nc(OC[C@@H]3CCCN3C)nc3cc(-c4cccc5c4C4CC4C5)ccc23)C[C@@H]1CC#N (stereo partly drawn) [Example 537, 2-((2S)-1-(2-fluoroacryloyl)-4-(2-(((S)-1-methylpyrrolidin-2-yl)methoxy)-7-(1,1a,6,6a-tetrahydrocyclopropa[a]inden-2-yl)quinazolin-4-yl)piperazin-2-yl)acetonitrile]
34 | 1010 nM | C=CC(=O)N1CCN(c2nc(OC[C@@H]3CCCN3C)nc3c(F)c(N4CCCc5cc(F)ccc54)c(Cl)cc23)CC1 [Example 615, (S)-1-(4-(6-chloro-8-fluoro-7-(6 fluoro-3,4-dihydroquinoline-1(2H)-yl)-2-((1-methylpyrrolidin-2-yl)methoxy)quinazolin-4-yl)piperazin-1-yl)prop-2-en-1-one]
35 | 473 nM | C=CC(=O)N1CCN(c2nc(OC[C@@H]3CCCN3C)nc3c(F)c(N4CCCc5cc(F)ccc54)ccc23)C[C@@H]1CC#N [Example 616]
36 | 884 nM | C=CC(=O)N1CCN(c2nc(OC[C@@H]3CCCN3C)nc3c(F)c(N4CCc5cc(F)ccc54)ccc23)CC1 [Example 617]
37 | 200 nM | C=CC(=O)N1CCN(c2nc(OC[C@@H]3CCCN3C)nc3cc(N4CCCc5cccc(Cl)c54)ccc23)C[C@@H]1CC#N [Example 618]
38 | 138 nM | C=CC(=O)N1CCN(c2c(C#N)c(OCC34CCCN3CCC4)nc3cc(-c4cccc5ccc(F)c(Cl)c45)ccc23)C[C@@H]1CC#N [Example 620]
39 | 200 nM | C=CC(=O)N1CCN(C2=C(C#N)C(OC[C@@H]3CCCN3C)=NC3C=C(c4cccc5ccc(F)c(Cl)c45)C=CC23)C[C@@H]1CC#N (stereo partly drawn) [Example 623]
40 | 850 nM | C=CC(=O)N1CCN(C2=C(C#N)C(OC[C@@H]3C[C@@H](F)CN3C)=NC3C=C(c4cccc5ccc(F)c(Cl)c45)C=CC23)C[C@@H]1CC#N (stereo partly drawn) [Example 625]
41 | 120 nM | C=C(F)C(=O)N1CCN(C2=C(C#N)C(OCC34CCCN3CCC4)=NC3C=C(c4cccc5ccc(F)c(Cl)c45)C=CC23)C[C@@H]1CC#N (stereo partly drawn) [Example 627]
42 | 60 nM | C=CC(=O)N1CCN(C2=C(C#N)C(OC[C@@]34CCCN3C[C@H](F)C4)=NC3C=C(c4cccc5ccc(F)c(Cl)c45)C=CC23)C[C@@H]1CC#N (stereo partly drawn) [Example 628]
